From US5620416A, “Methods of using topical agents with systemically administered active agents” (priority 1995, dated 1997)

Experiment: Skin CDDP concentration after iontophoresis of a vasoactive agent with intravenous cisplatin infusion
Assay type: in vivo, female weanling Yorkshire pigs
Description: The ability of iontophoretically-delivered, vasoactive compounds to affect local cutaneous concentrations of a systemically delivered active agent was investigated in female weanling Yorkshire pigs. The effect of the timing of iontophoresis on tissue deposition of active agent was also investigated.
Study animals were assigned to receive iontophoresis either prior to, or after, attaining steady-state systemic concentrations of cisplatin (cisdiaminedichloroplatinum, CDDP). The iontophoresed agent was either a peripheral vasodilator (tolazoline), peripheral vasoconstrictor (norepinephrine), or saline.
Subjects were sedated with intramuscular ketamine/xylazine, and anesthesia was maintained with intravenous thiamylal. In each subject the inguinal area was divided into four quadrants, three of which received iontophoresis. One quadrant received iontophoresis of 0.4% tolazoline HCl (TOL); one received iontophoresis of 0.4% norepinephrine HCl (NOR); and one received iontophoresis of 50% saturated saline (SAL). The remaining quadrant served as a control (CON) and was not subjected to iontophoresis.
Iontophoretic current density was 0.2 mAmp/cm^2. Cisplatin (1.0 mg/ml) was infused via the saphenous vein at a rate of 0.03 mg/kg/min. […]

Compound: NC[C@H](O)c1ccc(O)c(O)c1 [Norepinephrine, norepinephrine]
- skin CDDP concentrations among skin samples (in words) (iontophoresis after reaching steady-state CDDP, control, tolazoline, norepinephrine and saline electrodes): did not vary significantly
- skin CDDP concentration vs control skin (in words) (iontophoresis prior to steady-state CDDP, tolazoline p=0.01, norepinephrine p<0.001): significantly lower
